From patent US5106407A, “Iodones and methods for antimicrobial use” (priority 1989, dated 1992)
≈ marks a conversion by molar mass, not a printed value.

How the values were obtained:
[1] = system: Selenastrum capricornutum; assay: algaecide test, inhibition of growth; type: cell-based; details: 96 hr incubation, read-out: growth of the algae, Percent of Control
Description: Using a Coulter Counter, the growth of this algea was measured after 96 hr incubation with various levels of biocide, i.e., (2-nitrophenyl)-iodonium 2,2-dimethyl-4,6-dioxo-1,3-dioxan-5-ylide.

[2] = system: bacteria listed in Table I, Klebsiella oxytoca, Enterobacter gergoviae, Pseudomonas putida #1, and Pseudomonas putida #2; assay: hand creme preservation test
Description: Fifty gram aliquots of the latex were placed in sterile bottles and one hundred gram aliquots of the diluted cutting oil were placed in 250-mL Erlenmeyer flasks. An appropriate amount of a fresh 1 percent stock solution of (2-nitrophenyl)-iodonium 2,2-dimethyl-4,6-dioxo-1,3-dioxan-5-ylide in acetone-water was added to achieve the desired final concentrations (see Tables 5 and 6). A small portion of the respective latex or cutting oil preparation was then streaked onto Tryptic Soy Agar (TSA) petri plates using sterile cotton swabs to determine whether the preparations were sterile. If the particular preparation was sterile, it was then inoculated with an appropriate volume (0.1 mL for the latex and 0.2 mL for the cutting oil) of a mixture of equal aliquots of 24 hr cultures of each of the bacterial organisms listed in Table 1 (not the fungi and yeast). The latex samples were incubated at 30° C. and the cutting oils were agitated on a rotary shaker at room temperature. After 24 hr, all samples were again streaked on TSA. All plates were then incubated at 30° C. for 48 hr and then rated 1 to 10 according to the growth rating system described in Table 4.
The results from this first set of streaks after inoculation are listed in the columns labeled streak number 1 in Tables 5 and 6. Samples with a rating of 3 or less from streak number 1 were reinoculated as described for the first inoculation above. Samples with a rating of 4 or greater were not reinoculated. After another 24 hr all samples were again restreaked on TSA agar. The results from these second streaks were labeled streak number 2 in Tables 5 and 6. Samples were reinoculated and restreaked in this fashion for a maximum of 10 streaks. Any samples with two streaks in a row with a ten rating were not restreaked again.
The ingredients of the hand creme, hand lotion, and protein shampoo are listed in Tables 7, 8 and 9, respectively. In the cosmetic preservative procedures, the stock solution of (2-nitrophenyl)-iodonium 2,2-dimethyl-4,6-dioxo-1,3-dioxan-5-ylide) was made in dimethylformamide (DMF)/water solution. In addition to the bacteria listed in Table I, the following bacteria were also included in the inocula: Klebsiella oxytoca, Enterobacter gergoviae, Pseudomonas putida #1, and Pseudomonas putida #2.

Enterobacter aerogenes = assay: minimum inhibitory concentration (MIC), agar dilution; type: cell-based; details: Klebsiella aerogenes, ATCC13048; ATCC 13048; nutrient agar pH 6.8; read-out: MIC
Description: (§1) The minimum inhibitory concentration (MIC) for the compound of Example 19, i.e., (2-nitrophenyl)-iodonium 2,2-dimethyl-4,6-dioxo-1,3-dioxan-5-ylide was determined for 9 bacteria (using nutrient agar) and 5 yeast and fungi (using malt yeast agar). A one percent solution of this test compound (i.e., the compound of Example 19) was prepared in a mixture of acetone-water. Nutrient agar was prepared at pH 6.8 using deionized water according to standard Difco procedures. Malt yeast agar was prepared by adding 3 g Bacto yeast extract and 42 g Bacto Malt agar per liter of deionized water. The agar (nutrient agar when testing with bacteria and malt yeast agar when testing with yeast and fungi) was dispensed in 30 mL aliquots into 25×200 millimeter (mm) test tubes, capped and autoclaved for 15 min at 115° C. The test tubes containing the agar were cooled in a water bath until the temperature of the agar was 48° C. and then an appropriate amount of the one percent solution of the test compound was added (except in the controls where no test compound was added with the acetone-water) to the respective test tubes so that final concentrations of 500, 250, 100, 50, 25, 10, 5, 2.5, 1.0 and 0 parts per million (ppm) of the test compound in the agar were obtained. The agar solutions were each mixed and poured into individual petri plates so that each petri plate contained agar having a known concentration of test compound dispersed therein. After drying for 24 hr, the petri plates were inoculated with bacteria when the petri plates contained nutrient broth agar or with fungi and yeast when the petri plates contained malt yeast agar.
(§2) The inoculation with bacteria was accomplished using the following procedure. Twenty-four hr cultures of each of the bacteria were prepared by incubating the respective bacteria in tubes containing nutrient broth for 24 hr at 30° C. in a shaker. Dilutions of each of the 24 hr cultures were made so that 9 separate suspensions (one for each of the 9 test bacteria) were made, each containing about 10^8 colony forming units (CFU) per mL of suspension of a particular bacteria. Aliquots of 0.3 mL of each of the above suspensions were used to fill individual wells of a Steer's Replicator. For each microbial suspension, 0.3 mL was used to fill 3 wells (i.e., 3 wells of 0.3 mL each) so that for the 9 different bacteria 27 wells were filled. The Steer's Replicator was then used to inoculate the petri plates.
(§3) The petri plates were incubated at 30° C. for 48 hr and then read to determine if the test compound (i.e., the compound of Example 19) which was incorporated into the agar prevented growth of the respective bacteria. The minimum inhibitory concentration (MIC) for each bacteria was defined as the lowest concentration of the test compound which prevented growth of that bacteria.
(§4) In a similar procedure, the MIC (in ppm) of the compound of Example 11 (i.e., (2-nitrophenyl)-iodonium 2,6-dioxocyclohexylide) for various organisms was determined at an acid pH (about 6.8) and at an alkaline pH (about 8.2).
(§5) Using similar procedures, the MIC's (in ppm) of various compounds of Formula I and/or Formula II were determined for the organisms Enterobacter aerogenes and Bacillus subtilis in a neutral solution (pH about 6.8) and in an alkaline medium (pH about 8.2).

Bacillus subtilis = assay: as above; type: cell-based; details: Bacillus subtilis, ATCC8473; ATCC 8473; nutrient agar pH 6.8; read-out: MIC
Description: as §1, §2, §3, §4, §5

`CC1(C)OC(=O)[C-]([I+]c2ccccc2[N+](=O)[O-])C(=O)O1` [Example 19, (2-Nitrophenyl)-iodonium 2,2-dimethyl-4,6-dioxo-1,3-dioxan-5-ylide] showed an activity at 0.01 ppm ([1]; 0.01 ppm) of 77%, an activity at 0.1 ppm ([1]; 0.1 ppm) of 2.4% and an activity at 1 ppm ([1]; 1.0 ppm) of 0.65%. For the same compound, the activity at 10 ppm ([1]; 10 ppm) was 0.59%, the activity at 32 ppm ([1]; 32 ppm) was 0.53% and the growth rating ([2]; 10 ppm, streak 1) was 1 (0). The growth rating ([2]; 10 ppm, streak 2) was 1 (0), the growth rating ([2]; 10 ppm, streak 3) was 1 (0) and the growth rating ([2]; 10 ppm, streak 4) was 1 (0). For the same compound, the growth rating ([2]; 10 ppm, streak 5) was 1 (0), the growth rating ([2]; 10 ppm, streak 6) was 5 (26-50) and the growth rating ([2]; 10 ppm, streak 7) was 1 (0). For the same compound, the growth rating ([2]; 10 ppm, streak 8) was 8 (210-300), the growth rating ([2]; 10 ppm, streak 9) was 1 (0) and the growth rating ([2]; 10 ppm, streak 10) was 7 (101-200). The growth rating ([2]; 50 ppm, streak 1) was 1 (0), the growth rating ([2]; 50 ppm, streak 2) was 1 (0) and the growth rating ([2]; 50 ppm, streak 3) was 1 (0). For the same compound, the growth rating ([2]; 50 ppm, streak 4) was 1 (0), the growth rating ([2]; 50 ppm, streak 5) was 1 (0) and the growth rating ([2]; 50 ppm, streak 6) was 1 (0). The growth rating ([2]; 50 ppm, streak 7) was 1 (0), the growth rating ([2]; 50 ppm, streak 8) was 1 (0) and the growth rating ([2]; 50 ppm, streak 9) was 1 (0). For the same compound, the growth rating ([2]; 50 ppm, streak 10) was 7 (101-200), the growth rating ([2]; 100 ppm, streak 1) was 1 (0) and the growth rating ([2]; 100 ppm, streak 2) was 1 (0). The growth rating ([2]; 100 ppm, streak 3) was 1 (0), the growth rating ([2]; 100 ppm, streak 4) was 1 (0) and the growth rating ([2]; 100 ppm, streak 5) was 1 (0). For the same compound, the growth rating ([2]; 100 ppm, streak 6) was 1 (0), the growth rating ([2]; 100 ppm, streak 7) was 1 (0) and the growth rating ([2]; 100 ppm, streak 8) was 1 (0). For the same compound, the growth rating ([2]; 100 ppm, streak 9) was 4 (11-25), the growth rating ([2]; 100 ppm, streak 10) was 7 (101-200) and the MIC (Enterobacter aerogenes) was 1 µg/mL (≈ 2.56 µM). For the same compound, the MIC (Bacillus subtilis) was ≤ 1 µg/mL.
